The text below walks through data of paper PMC9780703, “Unconventional interactions of the TRPV4 ion channel with beta-adrenergic receptor ligands” (Life Science Alliance, 2022).

Common to all, as to type: cell-based
Experiment [1] concerns the target T1, TRPV4 (Homo sapiens, UniProt Q9HBA0).
T1 construct: full-length wild type, transiently transfected HEK293, outside-out patches
Nature of the experiment: outside-out patch clamp of HEK293 cells expressing hTRPV4, % inhibition of GSK-activated current at […]. In general terms: The patch-clamp technique gives a direct electrical read-out from membranes.

The target in experiment [2] is T1, TRPV4. Description: outside-out patch clamp of HEK293 cells expressing hTRPV4, dose-response, single-channel recordings and site-directed mutagenesis (apparent KD from Hill fit).
In experiment [3] the target is T1, TRPV4. Description: outside-out patch clamp of HEK293 cells expressing hTRPV4, % inhibition of GSK-activated current at […]. This is another data set of the same source.
Experiment [4] deals with T1, TRPV4. The experiment is described as above. The source holds these as a separate data set.
The target in experiment [5] is T1, TRPV4. Description: outside-out patch clamp of HEK293 cells expressing hTRPV4, inhibition of GSK-activated currents, dose-response (apparent KD from Hill fit).
The target of experiment [6] is T1, TRPV4. Description: outside-out patch clamp of HEK293 cells expressing hTRPV4, % inhibition of GSK-activated current at […]. This is another data set of the same source.
Experiment [7] has as its target T1, TRPV4. Description: outside-out patch clamp of HEK293 cells expressing hTRPV4, activation dose-response (KD from Hill fit).
Experiment [8] has as its target T1, TRPV4. Nature of the experiment: outside-out patch clamp of HEK293 cells expressing hTRPV4, % inhibition of GSK-activated current at […]. The source holds these as a separate data set.

Molecules are shown by their SMILES. pKd: −log10 of the molar value. Structures can show the parent of a compound that is named as a salt. Where two headings read alike, the source gives them in different places.

T1 sequence (Q9HBA0 whole entry): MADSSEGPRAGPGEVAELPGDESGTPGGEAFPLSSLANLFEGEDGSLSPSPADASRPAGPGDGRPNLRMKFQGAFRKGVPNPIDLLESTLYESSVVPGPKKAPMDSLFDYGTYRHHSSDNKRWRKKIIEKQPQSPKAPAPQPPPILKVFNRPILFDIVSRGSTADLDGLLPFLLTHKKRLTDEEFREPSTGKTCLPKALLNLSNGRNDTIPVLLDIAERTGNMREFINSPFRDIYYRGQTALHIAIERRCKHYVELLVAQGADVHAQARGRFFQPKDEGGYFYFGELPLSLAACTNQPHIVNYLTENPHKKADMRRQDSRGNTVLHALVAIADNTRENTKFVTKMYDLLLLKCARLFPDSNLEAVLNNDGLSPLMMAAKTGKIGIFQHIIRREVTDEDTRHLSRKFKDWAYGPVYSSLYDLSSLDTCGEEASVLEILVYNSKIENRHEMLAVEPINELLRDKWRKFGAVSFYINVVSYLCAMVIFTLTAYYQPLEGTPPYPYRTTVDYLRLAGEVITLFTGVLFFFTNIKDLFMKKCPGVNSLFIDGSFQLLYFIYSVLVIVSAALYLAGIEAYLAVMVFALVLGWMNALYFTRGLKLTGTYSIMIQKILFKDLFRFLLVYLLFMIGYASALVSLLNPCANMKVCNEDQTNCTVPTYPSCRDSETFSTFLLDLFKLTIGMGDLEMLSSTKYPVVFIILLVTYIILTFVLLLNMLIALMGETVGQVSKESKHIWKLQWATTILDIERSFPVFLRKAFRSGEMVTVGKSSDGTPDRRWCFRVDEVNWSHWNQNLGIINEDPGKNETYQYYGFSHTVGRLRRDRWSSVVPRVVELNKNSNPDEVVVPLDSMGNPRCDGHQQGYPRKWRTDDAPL

As usually defined, the inhibition is how much of the control response was suppressed. The compound `CC(C)NCC(O)c1ccc(O)c(O)c1` (centres unmarked) [isoprenaline, 1-[3′,4′-dihydroxyphenyl]-2-isopropylaminoethanol hydrochloride] registered an inhibition at 500 µM at TRPV4 [1] of 51.6%.

As usually defined, the pKd is −log10 of the Kd, conventionally taken in molar units. In the case of `CC(C)(C)NCC(O)c1ccc(O)c(CO)c1` (racemic) [salbutamol, α1-[(tert-butylamino)methyl]-4-hydroxy-1,3-benzenedimethanol hemisulfate salt], on TRPV4 [2], the pKd was 4.09.

In turn, `CC(C)(C)NCC(O)c1cc(O)cc(O)c1` (centres unmarked) [terbutaline, 5-[2-[(1,1-dimethylethyl)amino]-1-hydroxyethyl]-1,3-benzenediol hemisulfate salt] returned an inhibition at 500 µM against TRPV4 [3] of 54.4%.

`CC(C)NCC(O)c1cc(O)cc(O)c1` (stereo not drawn) [metaproterenol, α-[(isopropylamino)methyl]-3,5-dihydroxybenzyl alcohol hemisulfate salt]: the inhibition at 500 µM at TRPV4 [4] was found to be 51.7%.

For `Cc1ccc(OC[C@H](O)[C@@H](C)NC(C)C)c2c1CCC2` (relative stereo) [ICI, [2R,3R]-rel-3-isopropylamino-1-[7-methylindan-4-yloxy]-butan-2-ol hydrochloride], the negative-log Kd (pKd) at TRPV4 [5] was 5.41.

In turn, `CC(C)(C)NCC(O)c1cc(Cl)c(N)c(Cl)c1` (stereo not drawn) [clenbuterol, 4-amino-α-[t-butylaminomethyl]-3,5-dichlorobenzyl alcohol hydrochloride] displayed an inhibition at 500 µM against TRPV4 [6] of 71.7%.

Consider `CC(C)C[C@H](NC(=O)c1cc2ccccc2s1)C(=O)N1CCN(C(=O)[C@H](CO)NS(=O)(=O)c2ccc(Cl)cc2Cl)CC1` [GSK, GSK1016790A], for which, on TRPV4 [7], the pKd is 7.00.

In turn, `CC(C)(C)NC[C@H](O)c1ccc(O)c(CO)c1` [levalbuterol] showed an inhibition at 500 µM on TRPV4 [8] of 42.6%.
